Measured values reported in patent US20160145247A1, “Aminomethyl-Biaryl Derivatives Complement Factor D inhibitors and uses thereof” (NOVARTIS AG, priority 2013, published 2016).

molecular target: T1, factor D (Homo sapiens, UniProt P00746); assay: factor D inhibition assay of Biological Example 2; format: biochemical
T1 construct: made in house; host or cells: E. coli
T1 sequence (P00746 26-253): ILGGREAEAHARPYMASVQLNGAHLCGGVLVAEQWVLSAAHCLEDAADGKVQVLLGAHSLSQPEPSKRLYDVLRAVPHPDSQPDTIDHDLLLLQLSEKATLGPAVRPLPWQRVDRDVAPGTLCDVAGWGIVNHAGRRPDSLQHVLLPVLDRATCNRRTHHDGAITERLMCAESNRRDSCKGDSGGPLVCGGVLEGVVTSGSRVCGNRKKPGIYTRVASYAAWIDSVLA

| Compound | IC50 [nM] |
| --- | --- |
| NCc1cccc(-c2c[nH]c(C(=O)Nc3ccccc3CC(=O)O)n2)c1 [Example 47, 2-(2-(4-(3-(Aminomethyl)phenyl)-1H-imidazole-2-carboxamido)phenyl)acetic acid] | 1930 |
| NCc1cccc(-c2cccc(S(=O)(=O)Nc3ccccc3CC(=O)O)c2)c1 [Example 48, 2-(2-(3′-(Aminomethyl)-[1,1′-biphenyl]-3-ylsulfonamido)phenyl)acetic acid] | 2890 |
| NCc1cc(F)cc(-c2cccc(S(=O)(=O)Nc3ccccc3CC(=O)O)c2)c1 [Example 49, 2-(2-(3′-(aminomethyl)-5′-fluoro-[1,1′-biphenyl]-3-ylsulfonamido)phenyl)acetic acid] | 2270 |
| NCc1cccc(-c2cc(NC3CC3)cc(C(=O)Nc3ccccc3CC(=O)O)n2)c1 [Example 50, 2-(2-(6-(3-(aminomethyl)phenyl)-4-(cyclopropylamino)picolinamido)phenyl)acetic acid] | 2 |
| NCc1cccc(-c2cc(N3CCN(c4ccccc4)CC3)cc(C(=O)Nc3ccccc3CC(=O)O)n2)c1 [Example 51, 2-(2-(6-(3-(Aminomethyl)phenyl)-4-(4-phenylpiperazin-1-yl)picolinamido)phenyl)acetic acid] | 6 |
| NCc1cccc(-c2cc(-c3ccccc3)cc(C(=O)Nc3ccccc3CC(=O)O)n2)c1 [Example 52, 2-(2-(6-(3-(Aminomethyl)phenyl)-4-phenylpicolinamido)phenyl)acetic acid] | 7 |
| NCc1cccc(-c2cc(NCc3ccccc3)cc(C(=O)Nc3ccccc3CC(=O)O)n2)c1 [Example 53, 2-(2-(6-(3-(Aminomethyl)phenyl)-4-(benzylamino)picolinamido)phenyl)acetic acid] | 3 |
| NCc1cccc(-c2cc(NCC(F)(F)F)cc(C(=O)Nc3ccccc3CC(=O)O)n2)c1 [Example 54, 2-(2-(6-(3-(Aminomethyl)phenyl)-4-((2,2,2-trifluoroethyl)amino)picolinamido)phenyl)acetic acid] | 3 |
| NCc1cccc(-c2cc(O)cc(C(=O)Nc3ccccc3CC(=O)O)n2)c1 [Example 55, 2-(2-(6-(3-(Aminomethyl)phenyl)-4-hydroxypicolinamido)phenyl)acetic acid] | 13 |
| NCc1cccc(-c2ccc(Cl)c(C(=O)Nc3ccccc3CC(=O)O)n2)c1 [Example 56-A, 2-(2-(6-(3-(Aminomethyl)phenyl)-3-chloropicolinamido)phenyl)acetic acid] | 107 |
| NCc1cccc(-c2ccc(-c3cccc(CN)c3)c(C(=O)Nc3ccccc3CC(=O)O)n2)c1 [Example 56-B, 2-(2-(3,6-bis(3-(Aminomethyl)phenyl)picolinamido)phenyl)acetic acid] | 117 |
| NCc1cccc(-c2cc(O)cc(C(=O)Nc3ccccc3CC(=O)O)c2)c1 [Example 59-C, 2-(2-(3′-(Aminomethyl)-5-hydroxy-[1,1′-biphenyl]-3-ylcarboxamido)phenyl)acetic acid] | 95 |
| NCc1cc(F)cc(-c2cc(O)cc(C(=O)Nc3ccccc3CC(=O)O)c2)c1 [Example 60, 2-(2-(3′-(Aminomethyl)-5′-fluoro-5-hydroxy-[1,1′-biphenyl]-3-ylcarboxamido)phenyl)acetic acid] | 47 |
| NCc1cccc(-c2cc(OCc3ncccn3)cc(C(=O)Nc3ccccc3CC(=O)O)c2)c1 [Example 61-B, 2-(2-(3′-(Aminomethyl)-5-(pyrimidin-2-ylmethoxy)-[1,1′-biphenyl]-3-ylcarboxamido)phenyl)acetic acid] | 32 |
| NCc1cccc(-c2cc(OCc3ccncc3)cc(C(=O)Nc3ccccc3CC(=O)O)c2)c1 [Example 62, 2-(2-(3′-(Aminomethyl)-5-(pyridin-4-ylmethoxy)-[1,1′-biphenyl]-3-ylcarboxamido)phenyl)acetic acid] | 54 |
| NCc1cc(F)cc(-c2cc(OCc3ccncc3)cc(C(=O)Nc3ccccc3CC(=O)O)c2)c1 [Example 65, 2-(2-(3′-(Aminomethyl)-5′-fluoro-5-(pyridin-4-ylmethoxy)-[1,1′-biphenyl]-3-ylcarboxamido)phenyl)acetic acid] | 17 |
